According to US12612424B2, “HPK1 inhibitors and uses thereof” (Regor Pharmaceuticals, Inc., priority 2019, dated 2026):

System: Human Pan T Cell (IL-2 release)
Experiment: IL2 released by human pan T cell upon anti-CD3/anti-CD28 stimulation (ELISA)
Format: cell-based
Conditions: human pan T cells; for maximal fold induction / EC (2-fold response): 48 h; for maximal fold induction: read-out: IL-2 Max Fold Response; for EC50: IL-2 response, calculated with GraphPad Prism; for EC (2-fold response) / EC2x (nM): concentration of compound that gives 200% IL-2 response (2 folds) over DMSO control
Source text: For example, Example 5 describes such a functional assay for determining the effect of an HPK1 inhibitor on IL-2 & IFN-γ release upon stimulation of Pan T cells. The secreted IL-2 & IFN-γ can be measured/quantified by standard ELISA assay. Briefly, pan T cells can be isolated from peripheral blood (PB) mononuclear cells (MNCs), or PBMC, using commercially available kits, such as MACS (Miltenyl Biotec) Pan T isolation kit (Cat. No. 130-096-535). Primary human pan-T cells include CD4 and CD8 T cells as well as some gamma/delta T cell subsets. The pan-T cells can be isolated using the negative immunomagnetic separation technique without the use of columns.
Isolated pan-T cells can be dispensed into 96-well plates at 100,000 cells/well, and stimulated with immobilized anti-CD3 antibody and soluable anti-CD28 antibody, or PMA/Ionomycin as the positive control (or culture media as the negative control). Different concentrations of test compounds can be added to the cells to assess the compound effect on cytokine secretion following TCR-stimulation/CD28 co-stimulation. Stimulated cells are incubated for 2 more days, before the supernatant (containing secreted cytokines by pan-T cells) is collected from each well for ELISA assay and quantitation of IL-2 and IFN-γ.
Biology Example 8 Compound Efficacy Study on IL2 & IFN-γ Released by Human Pan T Cell
This example is an assay method that can be used to determine compound effects on IL2 & IFN-γ release using pan T cells and ELISA assay format.
3. Procedures Procedures for Pan T isolation and Reagent preparation (Day 0): 1. Cell Growth Medium: • RPMI1640: ATCC, Cat #30-2001 • 10% FBS: Gibco, Cat #10099141 • 1% Pen-Strep: Gibco, Cat #15140122 • 1% Non-essential amino: Gibco, Cat #11140050 • Beta-Mercaptoethanol: Gibco, Cat #21985023 2. Pan T Isolation Buffer Preparation:
Prepare a solution containing phosphate-buffered saline (PBS), pH 7.2, 0.5% bovine serum albumin (BSA), and 2 mM EDTA by diluting MACS® BSA Stock Solution (#130-091-376) 20 times with autoMACS® Rinsing Solution. Keep buffer at 4° C. Degas buffer before use, as air bubbles could block the column.
3. Thawing of Frozen PBMC • 1) Pre-heat medium at 37° C. water bath. • 2) Rapidly thaw cells in 37° C. water bath. • 3) Add the pre-warmed medium into 15 mL tube. Transfer cells to the tube. • 4) 300×g centrifuge for 8 min. (centrifuge increase 0, decrease 0). • 5) Wash the PBMC using Rinsing buffer. • 6) Centrifuge PBMC at 300×g for 8 min, wash it twice (centrifuge increase 9, decrease 1). • 7) Resuspend the cells with Pan T cells isolation buffer and count cells number. 4. Pan T Cells Isolation: Cell Staining with Microbead Cocktail • 1) Prepare cells and determine cell number. Filter cells by 70 μm cell strainer. • 2) Resuspend cell pellet in 40 μL of buffer per 10^7 total cells. • 3) Add 10 μL of Pan T Cell Biotin-Antibody Cocktail per 10^7 total cells. • 4) Mix well and incubate for 10 minutes in the refrigerator (ice). • 5) Add 30 μL of buffer per 10^7 total cells. • 6) Add 20 μL of Pan T Cell MicroBead Cocktail per 10^7 total cells. • 7) Mix well and incubate for 15 minutes in the refrigerator (ice). • 8) Proceed to subsequent magnetic cell separation. • Note: a. Work fast, keep cells cold, and use pre-cooled solutions (2-8° C.). b. Volumes for magnetic labeling given are for up to 10′ total cells. When working with fewer cells, use the same volumes as indicated. c. When working with higher cell numbers, scale up all reagent volumes and total volumes accordingly. d. For optimal performance it is important to obtain a single-cell suspension before magnetic labeling. Subsequent Manual Cell Separation: • 1) Place LS Column in the magnetic field of a suitable MACS Separator. For details refer to the respective MACS Column data sheet. • 2) Prepare column by rinsing with 3 mL of buffer. • 3) Apply cell suspension onto the column. Collect flow-through, which represents the enriched T cells. • 4) Wash column with 5 mL of buffer. […]

[1] = Homo sapiens, T-cell, response of IL-2 over DMSO control, anti-CD3/anti-CD28, 48 hours, ELISA

| EC50 (Homo sapiens, T-cell) [nM] | EC50 [nM] | Structure (SMILES) | maximal fold induction [1] | EC (2-fold response) (Homo sapiens, T-cell) [µM] | EC2x (nM) | IL-2 Max Fold Response (response of IL-2 over DMSO control, anti-CD3/anti-CD28, 48 hours, ELISA) |
| --- | --- | --- | --- | --- | --- | --- |
|  |  | CNC(=O)C1(C)CN(c2nc(Nc3cc4c(cc3OC)CCN(C)C4)ncc2Cl)c2ccccc21 (centres unmarked) [Example 122] | < 2 |  |  |  |
| 100 to 500 |  | COc1cc2c(cc1Nc1ncc(Cl)c(N3CC(C)(CO)c4ccccc43)n1)CN(C)CC2 (centres unmarked) [Example 123] | < 2 |  |  |  |
| ≤ 100 |  | COc1cc2c(cc1Nc1ncc(Cl)c(N3CC(C)(CC(=O)O)c4cc(F)c(F)cc43)n1)CN(C)CC2 (centres unmarked) [Example 154] | > 2 | ≤ 0.1 |  |  |
| 500 to 1000 |  | COc1cc2c(cc1Nc1ncc(Cl)c(N3CC(S(C)(=O)=O)c4ccccc43)n1)CN(C)CC2 (centres unmarked) [Example 81, N-(5-chloro-4-(3-(methylsulfonyl)indolin-1-yl)pyrimidin-2-yl)-6-methoxy-2-methyl-1,2,3,4-tetrahydroisoquinolin-7-amine] | > 2 | 0.1 to 0.5 |  |  |
|  |  | COc1cc2c(cc1Nc1ncc(Cl)c(N3CC(C(=O)NO)c4ccccc43)n1)CN(C)CC2 (centres unmarked) [Example 101, 1-(5-Chloro-2-((6-methoxy-2-methyl-1,2,3,4-tetrahydroisoquinolin-7-yl)amino)pyrimidin-4-yl)-N-hydroxyindoline-3-carboxamide] | < 2 |  |  |  |
| ≤ 100 |  | COc1cc2c(cc1Nc1ncc3cc(C#N)n(-c4ccccc4)c3n1)CN(C)CC2 [Example 164, 2-((6-Methoxy-2-methyl-1,2,3,4-tetrahydroisoquinolin-7-yl)amino)-7-phenyl-7H-pyrrolo[2,3-d]pyrimidine-6-carbonitrile] | < 2 |  |  |  |
|  |  | COc1cc2c(cc1Nc1ncc(Cl)c(N3CC(C#N)c4ccccc43)n1)CN(C)CC2 (centres unmarked) [Example 99, 1-(5-Chloro-2-((6-methoxy-2-methyl-1,2,3,4-tetrahydroisoquinolin-7-yl)amino)pyrimidin-4-yl)indoline-3-carbonitrile] | < 2 |  |  |  |
| 100 to 500 |  | COc1cc2c(cc1Nc1ncc(Cl)c(N3CC(C(=O)O)c4cc(F)ccc43)n1)CN(C)CC2 (centres unmarked) [Example 104] | > 2 | 0.1 to 0.5 |  |  |
| ≤ 100 |  | COc1cc2c(cc1Nc1ncc(Cl)c(N3CC(C)(CC(=O)O)c4ccc(F)cc43)n1)CN(C)CC2 (centres unmarked) [Example 151] | > 2 | ≤ 0.1 |  |  |
| 100 to 500 |  | COc1cc2c(cc1Nc1ncc(Cl)c(N3CCc4cc(P(C)(C)=O)ccc43)n1)CN(C)CC2 [Example 86] | > 2 |  | + (“+”, for greater than 1 μM) |  |
|  |  | COc1cc2c(cc1Nc1ncc(Cl)c(-n3cc(C4(O)COC4)c4ccccc43)n1)CN(C)CC2 [Example 93] | < 2 |  |  |  |
| ≤ 100 |  | COc1cc2c(cc1Nc1ncc(Cl)c(N3CC(C)(CC(=O)O)c4cc(F)ccc43)n1)CN(C)CC2 (centres unmarked) [Example 150, 2-(1-(5-Chloro-2-((6-methoxy-2-methyl-1,2,3,4-tetrahydroisoquinolin-7-yl)amino)pyrimidin-4-yl)-5-fluoro-3-methylindolin-3-yl)acetic acid] | > 2 | ≤ 0.1 |  |  |
|  |  | COc1cc2c(cc1Nc1ncc(Cl)c(-n3cc(CC(=O)OC(C)C)c4ccccc43)n1)CN(C)CC2 [Example 130, Isopropyl 2-(1-(5-chloro-2-((6-methoxy-2-methyl-1,2,3,4-tetrahydroisoquinolin-7-yl)amino)pyrimidin-4-yl)-1H-indol-3-yl)acetate] | < 2 |  |  |  |
|  | ≤ 100 | COc1cc2c(cc1Nc1ncc(Cl)c(N3CC(C)(CC(=O)O)c4ccccc43)n1)CN(C)CC2 (single isomer, unassigned) [Example 148] |  | ≤ 0.1 |  | >2 |
|  |  | COc1cc2c(cc1Nc1ncc(Cl)c(N3CC(C(=O)NS(C)(=O)=O)c4ccccc43)n1)CN(C)CC2 (centres unmarked) [Example 98] | < 2 |  |  |  |
| ≤ 100 |  | COc1cc2c(cc1Nc1ncc(Cl)c(N3CC(C(=O)O)c4ccc(F)cc43)n1)CN(C)CC2 (centres unmarked) [Example 105] | > 2 | 0.1 to 0.5 |  |  |
| 100 to 500 |  | COc1cc2c(cc1Nc1ncc(Cl)c(-n3cc(CC(=O)O)c4cc(F)c(F)cc43)n1)CN(C)CC2 [Example 140] | > 2 | 0.1 to 0.5 |  |  |
|  |  | COc1cc2c(cc1Nc1ncc(C(F)(F)F)c(-n3ccc4ccccc43)n1)CN(C)CC2 [Example 10, N-(4-(1H-indol-1-yl)-5-(trifluoromethyl)pyrimidin-2-yl)-6-methoxy-2-methyl-1,2,3,4-tetrahydroisoquinolin-7-amine] | < 2 |  |  |  |
| ≤ 100 |  | CN1CCc2cc(F)c(Nc3ncc(Cl)c(N4CC(C)(CC(=O)O)c5ccccc54)n3)cc2C1 (centres unmarked) [Example 156] | > 2 | ≤ 0.1 |  |  |
| ≤ 100 |  | COc1cc2c(cc1Nc1ncc(Cl)c(N3CC(C)(CC(=O)O)c4ccccc43)n1)CNCC2 (centres unmarked) [Example 160, 2-(1-(5-Chloro-2-((6-methoxy-1,2,3,4-tetrahydroisoquinolin-7-yl)amino)pyrimidin-4-yl)-3-methylindolin-3-yl)acetic acid methanesulfonic acid] | > 2 | ≤ 0.1 |  |  |
| ≤ 100 |  | CCN1CCc2cc(OC)c(Nc3ncc(Cl)c(N4CC(C)(CC(=O)O)c5ccccc54)n3)cc2C1 (centres unmarked) [Example 157, 2-(1-(5-Chloro-2-((2-ethyl-6-methoxy-1,2,3,4-tetrahydroisoquinolin-7-yl)amino)pyrimidin-4-yl)-3-methylindolin-3-yl)acetic acid] | > 2 | ≤ 0.1 |  |  |
| ≤ 100 |  | COc1cc2c(cc1Nc1ncc(Cl)c(N3CC(C)(CC(=O)O)c4ccccc43)n1)CN(C)CC2 (centres unmarked) [Example 146] | > 2 | ≤ 0.1 |  |  |
|  | 500 to 1000 | COc1cc2c(cc1Nc1ncc(Cl)c(N3CC(C)(CC(=O)O)c4ccccc43)n1)CN(C)CC2 (single isomer, unassigned) [Example 147] | < 2 |  |  |  |
| 100 to 500 |  | CNC(=O)C1CN(c2nc(Nc3cc4c(cc3OC)CCN(C)C4)ncc2Cl)c2ccccc21 (centres unmarked) [Example 97, 1-(5-Chloro-2-((6-methoxy-2-methyl-1,2,3,4-tetrahydroisoquinolin-7-yl)amino)pyrimidin-4-yl)-N-methylindoline-3-carboxamide] | > 2 |  | ++ (“++”, for higher values than “+++” but less than or equal to 1 μM) |  |
|  |  | COc1cc2c(cc1Nc1ncc(Cl)c(N3CC(C(=O)N(C)O)c4ccccc43)n1)CN(C)CC2 (centres unmarked) [Example 102] | < 2 |  |  |  |
| ≤ 100 |  | COc1cc2c(cc1Nc1ncc(Cl)c(N3CC(C)(CC(=O)O)c4ccccc43)n1)CN(C(C)C)CC2 (centres unmarked) [Example 158, 2-(1-(5-Chloro-2-((2-isopropyl-6-methoxy-1,2,3,4-tetrahydroisoquinolin-7-yl)amino)pyrimidin-4-yl)-3-methylindolin-3-yl)acetic acid] | > 2 | ≤ 0.1 |  |  |
